Source: the NIST ThermoML archive (doi:10.1021/je060271a)

Settings: 323.15 K, Liquid, Vibrating tube method

CCCCC(=O)OCC(COC(=O)CCCC)(COC(=O)CCCC)COC(=O)CCCC [pentaerythritol tetrapentanoate]
Settings | mass density [kg/m3]
5507 kPa | 998.5
5515.1 kPa | 998.5
5521.3 kPa | 998.4
5527 kPa | 998.5
5546.7 kPa | 998.6
5564 kPa | 998.6
5581.9 kPa | 998.5
5599.5 kPa | 998.6
5620.8 kPa | 998.5
5638.1 kPa | 998.7
5660 kPa | 998.6
5678.2 kPa | 998.6
5695.6 kPa | 998.6
5714.3 kPa | 998.7
5736.6 kPa | 998.6
5755.1 kPa | 998.7
5774.3 kPa | 998.6
5797.1 kPa | 998.8
5816.3 kPa | 998.9
5836 kPa | 998.8
5854.9 kPa | 998.8
5878.6 kPa | 998.8
5898.5 kPa | 998.8
5917.1 kPa | 998.8
5937.2 kPa | 998.9
5961 kPa | 998.8
5982 kPa | 998.9
6002.4 kPa | 998.9
6023.3 kPa | 998.8
6048 kPa | 998.8
6068.6 kPa | 999
6091.7 kPa | 998.8
6114.3 kPa | 999
6135.5 kPa | 998.8
6162.7 kPa | 998.9
6183.1 kPa | 998.9
6205.3 kPa | 999
6226.8 kPa | 999.1
6253.6 kPa | 999.1
6278.3 kPa | 999
6299 kPa | 999
6322 kPa | 999.1
6349.8 kPa | 999.1
6371.6 kPa | 999.1
6395.8 kPa | 999.1
6420.4 kPa | 999
6446 kPa | 999.2
6472.8 kPa | 999.2
6495.8 kPa | 999.3
6521.7 kPa | 999.2
6549.3 kPa | 999.2
6572.1 kPa | 999.2
6596.7 kPa | 999.3
6622.6 kPa | 999.3
6652.8 kPa | 999.2
6676.5 kPa | 999.3
6703.4 kPa | 999.2
6735.7 kPa | 999.4
6761.8 kPa | 999.4
6788.6 kPa | 999.5
6816.1 kPa | 999.4
6841.8 kPa | 999.4
6873.6 kPa | 999.5
6900.5 kPa | 999.4
6928.9 kPa | 999.6
6961.3 kPa | 999.6
6989.5 kPa | 999.5
7017 kPa | 999.6
7044.4 kPa | 999.4
7079.5 kPa | 999.6
7110.4 kPa | 999.7
7137.5 kPa | 999.7
7169.3 kPa | 999.6
7204.5 kPa | 999.8
7233.8 kPa | 999.7
7265.1 kPa | 999.7
7295.5 kPa | 999.8
7332.3 kPa | 999.8
7362 kPa | 999.7
7393.2 kPa | 999.8
7425.1 kPa | 999.9
7462.4 kPa | 999.8
7497 kPa | 1000
7529.6 kPa | 999.9
7562.2 kPa | 999.9
7602.1 kPa | 1000
7634.4 kPa | 999.9
7668.9 kPa | 1000
7702.7 kPa | 1000
7742.2 kPa | 1000
7778.3 kPa | 1000.1
7818.5 kPa | 1000.1
7854.9 kPa | 1000.1
7890.7 kPa | 1000.1
8008.7 kPa | 1000.2
8045.6 kPa | 1000.3
8085.8 kPa | 1000.3
8132.2 kPa | 1000.2
8166 kPa | 1000.4
8197.3 kPa | 1000.4
8234.5 kPa | 1000.4
8265.2 kPa | 1000.4
8297.6 kPa | 1000.5
8334.6 kPa | 1000.5
8366.3 kPa | 1000.6
8398.2 kPa | 1000.5
8437.2 kPa | 1000.5
8471.2 kPa | 1000.5
8502.6 kPa | 1000.5
8536.2 kPa | 1000.6
8575.9 kPa | 1000.5
8609.5 kPa | 1000.6
8644.9 kPa | 1000.7
8686.6 kPa | 1000.7
8721.6 kPa | 1000.7
8763.3 kPa | 1000.7
8798.5 kPa | 1000.8
8835.2 kPa | 1000.8
8871.2 kPa | 1000.7
8918.5 kPa | 1000.9
8948.2 kPa | 1000.9
8992.3 kPa | 1000.9
9029 kPa | 1000.9
9074.5 kPa | 1000.9
9112.8 kPa | 1001
9150.4 kPa | 1001.1
9188.8 kPa | 1001.1
9235.3 kPa | 1001
9275.3 kPa | 1001.2
9315.5 kPa | 1001.1
9364.1 kPa | 1001.1
9405.6 kPa | 1001.2
9494 kPa | 1001.2
9537.2 kPa | 1001.2
9589.3 kPa | 1001.2
9624.3 kPa | 1001.3
9656.6 kPa | 1001.3
9695.6 kPa | 1001.3
9727.6 kPa | 1001.5
9873 kPa | 1001.5
9976.5 kPa | 1001.6
10018 kPa | 1001.6
10129 kPa | 1001.8
10165 kPa | 1001.7
10208 kPa | 1001.8
10280 kPa | 1001.7
10325 kPa | 1001.8
10362 kPa | 1001.9
10400 kPa | 1001.9
10447 kPa | 1001.9
10486 kPa | 1001.9
10527 kPa | 1002
10577 kPa | 1001.8
10620 kPa | 1002.1
10661 kPa | 1002
10691 kPa | 1002.1
10711 kPa | 1002.1
10731 kPa | 1002.2
10755 kPa | 1002.1
10775 kPa | 1002
10795 kPa | 1002.1
10820 kPa | 1002.2
10840 kPa | 1002.2
10860 kPa | 1002.2
10885 kPa | 1002.2
10905 kPa | 1002.2
10926 kPa | 1002.2
10951 kPa | 1002.2
10971 kPa | 1002.3
10992 kPa | 1002.2
11018 kPa | 1002.3
11039 kPa | 1002.2
11060 kPa | 1002.4
11085 kPa | 1002.4
11106 kPa | 1002.3
11128 kPa | 1002.4
11153 kPa | 1002.4
11175 kPa | 1002.3
11197 kPa | 1002.4
11223 kPa | 1002.5
11245 kPa | 1002.5
11267 kPa | 1002.4
11289 kPa | 1002.5
11316 kPa | 1002.5
11339 kPa | 1002.5
11366 kPa | 1002.7
11388 kPa | 1002.6
11411 kPa | 1002.6
11434 kPa | 1002.6
11461 kPa | 1002.6
11484 kPa | 1002.6
11534 kPa | 1002.6
11558 kPa | 1002.6
11581 kPa | 1002.6
11610 kPa | 1002.5
11633 kPa | 1002.7
11657 kPa | 1002.6
11681 kPa | 1002.7
11710 kPa | 1002.7
11735 kPa | 1002.8
11759 kPa | 1002.7
11784 kPa | 1002.8
11813 kPa | 1002.8
11838 kPa | 1002.8
11862 kPa | 1002.9
11892 kPa | 1002.9
11917 kPa | 1003
11942 kPa | 1002.8
11971 kPa | 1003
11996 kPa | 1003
12022 kPa | 1002.9
12053 kPa | 1003
12074 kPa | 1003.1
12105 kPa | 1003
12130 kPa | 1003
12156 kPa | 1003
12187 kPa | 1003
12213 kPa | 1003.1
12244 kPa | 1003.1
12271 kPa | 1003.1
12297 kPa | 1003.2
12324 kPa | 1003.2
12355 kPa | 1003.2
12382 kPa | 1003.4
12415 kPa | 1003.3
12442 kPa | 1003.1
12469 kPa | 1003.2
12502 kPa | 1003.3
12529 kPa | 1003.4
12557 kPa | 1003.4
12585 kPa | 1003.4
12618 kPa | 1003.2
12646 kPa | 1003.4
12674 kPa | 1003.4
12736 kPa | 1003.4
12770 kPa | 1003.5
12800 kPa | 1003.3
12828 kPa | 1003.6
12858 kPa | 1003.5
12892 kPa | 1003.5
12922 kPa | 1003.7
12957 kPa | 1003.7
12986 kPa | 1003.6
13016 kPa | 1003.7
13052 kPa | 1003.6
13082 kPa | 1003.6
13112 kPa | 1003.7
13149 kPa | 1003.7
13179 kPa | 1003.7
13210 kPa | 1003.7
13242 kPa | 1003.9
13279 kPa | 1003.8
13310 kPa | 1003.9
13347 kPa | 1003.9
13378 kPa | 1003.7
13410 kPa | 1003.9
13443 kPa | 1004
13482 kPa | 1003.9
13514 kPa | 1004
13548 kPa | 1004
13581 kPa | 1004
13620 kPa | 1004
13654 kPa | 1004
13687 kPa | 1004.2
13727 kPa | 1004
13760 kPa | 1004.1
13794 kPa | 1004.2
13829 kPa | 1004.2
13870 kPa | 1004.3
13945 kPa | 1004.2
13980 kPa | 1004.2
14049 kPa | 1004.4
14091 kPa | 1004.3
14126 kPa | 1004.4
14162 kPa | 1004.3
14284 kPa | 1004.4
14320 kPa | 1004.4
14358 kPa | 1004.5
14402 kPa | 1004.5
14440 kPa | 1004.6
14477 kPa | 1004.6
14515 kPa | 1004.6
14560 kPa | 1004.7
14600 kPa | 1004.6
14639 kPa | 1004.7
14678 kPa | 1004.6
14717 kPa | 1004.7
14764 kPa | 1004.7
14803 kPa | 1004.7
14843 kPa | 1004.8
14891 kPa | 1004.9
14931 kPa | 1004.9
14972 kPa | 1005
15020 kPa | 1004.9
15062 kPa | 1004.9
15103 kPa | 1005
15147 kPa | 1005
15192 kPa | 1005.1
15243 kPa | 1005.1
15287 kPa | 1005.1
15332 kPa | 1005.1
15386 kPa | 1005.2
15429 kPa | 1005.1
15462 kPa | 1005.2
15497 kPa | 1005.2
15526 kPa | 1005.2
15556 kPa | 1005.3
15585 kPa | 1005.3
15621 kPa | 1005.2
15652 kPa | 1005.4
15685 kPa | 1005.4
15723 kPa | 1005.4
15754 kPa | 1005.5
15779 kPa | 1005.4
15803 kPa | 1005.4
15822 kPa | 1005.5
15842 kPa | 1005.5
15865 kPa | 1005.6
15885 kPa | 1005.5
15904 kPa | 1005.6
